The values that follow come from patent US7759101B2, “Ginsenoside glycosidases hydrolyzing ginsenoside sugar moieties and uses thereof” (priority 2000, dated 2010).

The subject of assay [1] is ginsenoside glycosidase I. Kind of assay: Hydrolysis of ginsenosides with Fraction 36 (ginsenoside glycosidase I). It is filed as biochemical, Aspergillus niger. The following applies: pH 5.0, 30° C. How it is done:
(§1) 10 ml of the enzyme solution obtained in 1.1 was subjected to a DEAE-Cellulose DE-52 column (Pharamcia, 1.5×6.7 cm) to absorb the enzyme protein. The column was then eluted with a NaCl gradient (0.06, 0.12, 0.18, 0.24, 0.3, 0.4, 0.5 and 0.6M).
Fractions 36 and 54 from the DEAE-Cellulose column appeared as one dot on a SDS-polyacrylamide gel, representing the purified enzymes.
Fraction 36 which was eluted with 0.12 M NaCl from the DEAE-Cellulose column was lyophilized and appeared as a single dot with a molecular weight of 51,000 Daltons when running on a SDS-polyacrylamide gel.
(§2) To observe the differences between the ginsenoside glycosidases of the invention and known exo-cellulases, the ginsenoside glycosidases of the invention were compared with cellulose β-glucosidase (E.C. 3.2.1.21) in two reactions with 0.5% ginsenosides Rb1 or Rd as substrate.

The test system of assay [2] is ginsenoside glycosidase II. As to the kind of experiment: Hydrolysis of ginsenosides with ginsenoside glycosidase II (Fraction 54). It is filed as biochemical, Aspergillus niger. The following applies: substrate 0.5%, pH 5.0, 30° C., 18 hours. How it is done: as §1
Fraction 54 which was eluted with 0.18 M NaCl from the DEAE-Cellulose column was lyophilized and appeared as a single dot when running on a SDS-polyacrylamide gel with a molecular weight of 90,000 Daltons. Therefore, it represented a purified enzyme and designated as ginsenoside glycosidase II.
as §2

The subject of assay [3] is Almond cellulose β-glucosidase(EC 3.2.1.21). Kind of assay: Comparison: hydrolysis of ginsenosides with almond cellulose β-glucosidase. It is filed as biochemical. Conditions: substrate 0.5%, pH 5.0, 30° C., 18 hours.
Excerpt: as §2

For assay [4], the system named is Cellulose β-glucosidase of Clostridium and Bacillus (EC 3.2.1.21). Kind of assay: Comparison: hydrolysis of ginsenosides with cellulose β-glucosidase of Clostridium and Bacillus. Conditions: substrate 0.5%, pH 5.0, 30° C., 18 hours. It is filed as biochemical, Clostridium thermocopiriae and Bacillus sp. AX.
Excerpt: as §2
Cellulose β-glucosidases (EC 3.2.1.21) from Clostridium thermocopiriae and Bacillus sp. AX cannot hydrolyze any glycosides of ginsenosides. The cellulose β-glucosidase from almond slightly hydrolyzes the C-20 glycoside of Rb1, Rb2 and Rc to give ginsenoside Rd, but it cannot hydrolyze the glucoside at C-3. Ginsenoside glycosidase II is similar to cellulose β-glucosidase from almond, but it only slightly hydrolyzes Rd. The properties of ginsenoside glycosidase III are totally different from those of cellulose β-glucosidases.

Assay [5] deals with ginsenoside glycosidases from A. oryzae. Kind of assay: Hydrolysis of ginsenosides with crude ginsenoside glycosidases from A. oryzae, TLC. The following applies: pH 5.0, 30° C., 18 hours. It is filed as biochemical, Aspergillus oryzae. How it is done: Aspergillus oryzae FFCCDL-39 g (available from Food Fermentation Culture Collection of Dalian Institute of Light Industry) was cultured with stirring in a medium containing 1% ginseng extracts and 3% wheat bran extracts at 30° C. for 64 hours. Cells were removed by centrifugation, after which (NH4)2SO4 powder was added to 2000 ml of the cell-free supernatant with stirring to 65% saturation. The solution was stored overnight at 4° C. and precipitated proteins were collected by centrifugation, resuspended in 80 ml of distilled water and dialyzed against 0.01M acetate buffer pH 5. Insolubles were removed by centrifugation, and the solution was adjusted to 200 ml with 0.01 M acetate buffer pH 5. The crude enzyme solution may be used to hydrolyze ginsenosides or to purify the enzymes.
Each 100 mg of ginsenosides Rb1, Rb2, Rc Re and Rd and each 10 mg of ginsenoside Rg3 and Rg2 were dissolved in separate tubes containing 10 ml of 0.01M acetate buffer pH 5. 10 ml of the crude enzyme solution obtained as above was added to each tube and allowed to react at 30° C. for 18 hours. Then 10 ml of n-butanol was added to stop the reactions. The products were measured by thin layer chromatography (TLC) (Silica gel 60-F254, Merck; chloroform:methanol:water 70:30:5). […]

Assay [6] deals with ginsenoside glycosidase I from ginseng plants. Kind of assay: Hydrolysis of ginsenosides with fraction 52 (ginsenoside glycosidase I) from ginseng plant. It is filed as biochemical. The following applies: Fraction 52; substrate 0.5%; 50° C., pH 5.0, 18 hours. The procedure: 200 g of fresh ginseng root was cut into pieces and added to 600 ml of 0.02 M acetate buffer pH 5. Supernatant was obtained by filtration after the mixture stand at 40° C. for 2 hours. To the supernatant (NH4)2SO4 was added gradually until 70% saturation and the mixture stand overnight at 4° C. Then protein pellets were collected by centrifugation and redissolved in 15 ml of distilled water. The solution was dialyzed against 0.02 M Tris-HCl pH 7.4. Insolubles were removed by centrifugation and the volume of the supernatant was adjusted to 20 ml.
5 ml of the enzyme solution was subjected to a DEAE-Cellulose DE-25 column (Whatman, 1.4×6.7 cm). The column was eluted with a KCl gradient (0.06, 0.12, 0.18 and 0.24 M) in 0.02 M Tris-HCl pH 7.4. After elution, each fraction was tested for the activity of hydrolyzing ginsenosides. […] Fraction 52 can also hydrolyze the glucosidic bond at the twentieth carbon atom of Rb and Rc to give ginsenoside F2.

In assay [7] the test system is ginsenoside glycosidases from wheat bran. Kind of assay: Hydrolysis of ginsenosides with ginsenoside glycosidases from wheat bran. It is filed as biochemical. The following applies: 10 ml of 1% ginsenoside substrate, 40° C., 20 hours. How it is done: 500 g of wheat bran was added to 2500 ml of 0.02 M acetate buffer pH 5 and extracted at 40° C. for 2 hours. 2000 ml of supernatant were obtained by filtration to which (NH4)2SO4 was added gradually with stirring until 70% saturation. The mixture stand at 4° C. overnight. Protein pellets were collected by centrifugation and redissolved in 80 ml of distilled water and dialyzed against 0.02 M acetate buffer pH 5.0. Insolubles were removed by centrifugation and the supernatant was adjusted to a volume of 200 ml to obtain the crude enzyme solution.
10 ml of the enzyme solution was allowed to react with 10 ml of 1% ginsenoside substrate at 40° C. for 20 hours.

The mark [8] stands for this setting: Fraction 36, substrates Rb1, Rb2, Rc, Rd 0.5%, Rg3, F2, Rh2, C—K, Rg2 0.05%.
[9] abbreviates: Table 8, ginsenoside glycosidase I, substrate 0.5%, 18 hours.

SMILES strings stand for the structures.

Regarding `CC(C)=CCC[C@](C)(O[C@@H]1O[C@H](CO[C@@H]2O[C@H](CO)[C@@H](O)[C@H](O)[C@H]2O)[C@@H](O)[C@H](O)[C@H]1O)[C@H]1CC[C@]2(C)[C@@H]1[C@H](O)C[C@@H]1[C@@]3(C)CC[C@H](O[C@@H]4O[C@H](CO)[C@@H](O)[C@H](O)[C@H]4O[C@@H]4O[C@H](CO)[C@@H](O)[C@H](O)[C@H]4O)C(C)(C)[C@@H]3CC[C@]12C` [Rb1, ginsenoside Rb1], the “Percentage of C—K in the reaction product” value was determined as 49% in assay [1] (setting [8]), 49% in assay [1] (setting [9]) and 45% in assay [5]. In addition, the “Percentage of F2 in the reaction product” value in assay [1] (setting [8]) came to 38%; in assay [1] (setting [9]), 38%; in assay [5] it was 38%; in assay [6], 70%; in assay [7], 55%. Further, the “Percentage of Rd in the reaction product” value in assay [1] (setting [8]) turned out to be 8%; in assay [1] (setting [9]), 8%; in assay [2] it was 90%; in assay [3], 20%; in assay [5] it was 20%; in assay [6] it was 30%. For the same compound, the “Percentage of Rd in the reaction product” value in assay [7] is given as 40%. The “Percentage of Rh2 in the reaction product” value in assay [1] (setting [8]) and in assay [1] (setting [9]) was 1% throughout. Further, the “Percentage of aglycone in the reaction product” value in assay [1] (setting [8]), in assay [1] (setting [9]) and in assay [5] was 2% in each case. Also, in assay [2], the “Percentage of Rg3 in the reaction product” value came to 5%. Moreover, the “Percentage of Rb1 in the reaction product” value in assay [3] is listed as 80%; in assay [4] it was 100%.

In the case of `CC(C)=CCC[C@](C)(O[C@@H]1O[C@H](CO)[C@@H](O)[C@H](O)[C@H]1O)[C@H]1CC[C@]2(C)[C@@H]1[C@H](O)C[C@@H]1[C@@]3(C)CC[C@H](O[C@@H]4O[C@H](CO)[C@@H](O)[C@H](O)[C@H]4O[C@@H]4O[C@H](CO)[C@@H](O)[C@H](O)[C@H]4O)C(C)(C)[C@@H]3CC[C@]12C` [Rd, ginsenoside Rd], the results for the “Percentage of C—K in the reaction product” value in assay [1] (setting [8]), in assay [1] (setting [9]) and in assay [5] were 25%, 25% and 29%, respectively. Further, the “Percentage of F2 in the reaction product” value came out at 50% in assay [1] (setting [8]); 50% in assay [1] (setting [9]); 40% in assay [5]; 40% in assay [6]; 40% in assay [7]. Moreover, the “Percentage of aglycone in the reaction product” value in assay [1] (setting [8]), in assay [1] (setting [9]) and in assay [5] was 5% each time. The “Percentage of Rd in the reaction product” value in assay [2] is recorded as 90%; in assay [5], 25%; in assay [6], 60%; in assay [7], 60%. In addition, the “Percentage of Rg3 in the reaction product” value in assay [2] is 5%; in assay [5], 1%. The “Percentage of Rb1 in the reaction product” value in assay [3] and in assay [4] was 100% throughout.
